From patent US20160279190A1, “MODULATION OF AXON DEGENERATION” (GENENTECH, INC., priority 2008, published 2016)

Legend:
DRGs = assay: Campenot chamber local axon degeneration, anti-NGF in axon compartment; assay type: cell-based, mouse; conditions: inhibitor 15 μM; anti-NGF in axon compartment, 28 hours
Procedure: Teflon dividers (Tyler Research) were cleaned by washing in water and wiping them clean of any residual grease. Dividers were then soaked in Nochromix (Godax Laboratories)/sulfuric acid overnight, rinsed five times in distilled and autoclaved water (SQ water), boiled for 30 minutes, and then air-dried before use.
Mouse laminin (5 μg/ml in sterile filtered water; Invitrogen) was added to PDL coated 35 mm dishes (BD Biosciences) and they were incubated for 1 hour at 37° C., followed by two rinses in SQ water. The dishes were vacuum-dried and then air-dried in a laminar flow hood for 15 minutes. Prepared dishes were then scored with a pin rake (Tyler Research). […] High vacuum grease (VWR) was added to each Teflon divider under a dissection scope. The laminin coated PDL dishes were inverted and dropped onto the Teflon divider, with additional pressure added by use of a toothpick in the non-track-containing regions. Dishes were incubated for 1 hour at 37° C. Five hundred microliters of NBM+MC (50 ng/ml NGF) solution was added to each of the side compartments, and a grease barrier was added in front of the center cell slot.
Free E13.5 spinal cords were dissected from mouse embryos and placed into NBM+MC (25 ng/ml NGF) solution. DRGs were detached from the spinal cord with a tungsten needle. An NBM+MC-lubricated P200 pipette was used to move DRGs into a 1.5 ml tube. DRGs were pelleted with a tabletop centrifuge for 30 seconds. The supernate was discarded and 0.05% Trypsin/EDTA (cold) was added. The pellet was resolubilized with a pipette and incubated at 37° C. for 15 minutes with constant agitation (650 RPM). The sample was again centrifuged and the supernate discarded. The pellet was resuspended in warm NBM+MC (50 ng/ml NGF) solution and triturated with a flamed glass pipette 20 times, followed by trituration with a fire-bored glass pipette another 20 times. The samples were again centrifuged and the resulting pellets were resuspended in 0.5 ml NBM+MC (50 ng/ml NGF) solution. The cells were diluted to a final concentration of 2.5×10^6 cells/ml. The cell suspensions were loaded into a 1 ml syringe with a 22 gauge needle. The center slot of the Campenot divider was filled using the syringe (to a volume of at least 50 μl). The Campenot chamber was incubated overnight at 37° C. 2.5 ml NGF+MC (50 ng/ml NGF) solution was added to the center compartment and the grease gate was removed. The outer medium (cell body compartment) was replaced after three days with 2.5 ml NBM+MC medium (with 25 ng/ml NGF). After five days in culture, one distal compartment was washed three times with warmed NBM+MC (no NGF) solution. After the third wash, 500 μl NBM+MC (no NGF) solution was added to the axon compartment in combination with either 0.5% DMSO or an inhibitor. The cell body compartment was replaced with 2.5 ml NBM+MC medium (with 25 ng/ml NGF) containing either 0.5% DMSO or inhibitor.
After 28 hours of anti-NGF antibody treatment, 8% PFA/30% sucrose solution (see above) was added directly to the culture medium at a 1:1 dilution and incubated for 30 minutes. The Teflon divider was removed after the first 15 minutes of addition. The system was washed once with 2.5 ml PBS prior to immunostaining. Neurons were blocked in 5% BSA/0.2% triton in PBS for 30 minutes. The primary antibody Tuj1 (Covance) was added to a final dilution of 1:1000 in PBS containing 2% BSA and incubated overnight at 4° C. The dish was washed once with PBS. […] The dish was washed twice with PBS, and a 22×22 mm coverslip (VWR) was added with 350 μl of fluoromount G (Electron Microscopy Sciences). The neurons were visualized by use of a fluorescence microscope.
As described above, E13.5 DRGs were isolated and grown for 5 days in a Campenot chamber.

[1] = tested on: cerebellar granule neurons (CGNs); assay: serum deprivation/KCl reduction-induced degeneration; assay type: cell-based, mouse; conditions: inhibitor 5 μM; 5 mM KCl, 24 hours
Procedure: Kinase inhibitors (inhibitors of GSK3, JNK, EGFR, p38, and CaMKK) were tested for their capacity to protect cultured cerebellar granule neurons (CGNs) following serum deprivation/KCl reduction. Briefly, CGNs isolated from P7 mouse brain were cultured on PDL- and laminin-coated 96-well tissue culture dishes in medium containing serum and potassium (Basal Medium Eagles including 29 mM KCl and 10% FBS) at 37° C. After 24 hours in culture, cells were switched to “deprivation” medium (Basal Medium Eagles including 5 mM KCl), alone or in combination with various small molecule inhibitors as shown in Table 8. After a further 24 hours in culture, the neurons were fixed with 4% paraformaldehyde and stained with a neuronal marker (anti-class III β-Tubulin, Covance). Image acquisition was performed using the ImageXpress automated imaging system (Molecular Devices).

SMILES: O=C(O)c1ccc2c3c1cccc3c(=O)n1c3ccccc3nc21 [STO-609]
- Axon Compartment (axon protected when inhibitor is in axon compartment) (DRGs): Yes (1)
- Cell Body Compartment (axon protected when inhibitor is in cell body compartment) (DRGs): No (1)
- protection of cerebellar granule neurons from serum deprivation/KCl reduction [1]: protect cerebellar granule neurons from serum deprivation/KCl reduction
